Reference: publication PMC12744750 (Plant Communications, 2025)
Entries after “also recorded” stand apart in the source; their conditions may differ.

What was measured:
[1] = system: Arabidopsis pls mutant seedlings (primary root length); assay: Hydroponic peptide feeding: rescue of short primary root of pls mutant; format: in vivo, Arabidopsis thaliana; settings: for rescue of root growth of pls seedlings: 50 nM peptide, n = 25 (Figure 2C)
Procedure: (A) Amino acid sequence of the PLS peptide from Arabidopsis thaliana with the Camelina sativa PLS sequence and the synthetic truncations N1, N2, C1, and C2 indicated by horizontal lines. Two cysteine residues are highlighted in bold. (B) Effect of the synthetic Arabidopsis PLS full-length peptide, A. thaliana PLS(FL), and the Camelina PLS peptide (C. sativa PLS) on Arabidopsis primary root length. Wild-type (C24; blue bars) and pls mutant seedlings (orange bars) were grown hydroponically in the presence (100 nM) or absence of peptide for 10 days. ∗∗∗P < 0.05, t-test between C24 and pls. Error bars show ±1 standard error of the mean, n = 20. (C) Effect of synthetic full-length and truncated peptides on primary root length of wild-type (blue bars) and pls mutant (orange bars) Arabidopsis. Seedlings were grown hydroponically in the presence of 50 nM peptide for 10 days. C1, C-terminal 14 amino acids; C2, C-terminal 24 amino acids; N1, N-terminal 22 amino acids; N2, N-terminal 9 amino acids; full-length PLS, 36 amino acids. Error bars show ±1 standard error of the mean, n = 25. ∗∗∗P < 0.05, t-test between C24 and pls.
proPLS::PLS:GFP comprises a 1.5-kb PLS promoter sequence ([Casson et al., 2002]) fused to the PLS open reading frame in pMDC107 (obtained from Prof. P.J. Hussey, Durham University) as a C-terminal GFP translational fusion. The PLS ORF with its 1.5-kb promoter was amplified from the TOPO 2.1 vector, which contained the PLS gene sequence with promoter ([Casson et al., 2002]); the primers used for cloning are listed in supplemental Table 9. pls mutant plants were transformed using the method of [Clough and Bent (1998)]. proPLS::GFP plants were generated using the 1.5-kb PLS promoter ([Casson et al., 2002]) fused to GFP in a wild-type background. p35S::GFP seedlings were obtained from Dr. Piers Hemsley, Durham University. Seedlings of Arabidopsis thaliana ecotype C24 or Col-0, pls mutants, and transgenic PLS overexpressers, all from lab stocks, were grown on solid sterile half-strength (2.2 g/l) Murashige and Skoog medium (Sigma-Aldrich) containing 10 g/l sucrose (half-strength [½] MS10 medium) solidified with 2.5 g/l Phytagel (Sigma-Aldrich) in 90-mm Petri dishes (Sarstedt, Leicester, UK) at 21°C under a 16-h photoperiod as described previously ([Casson et al., 2002]; [Chilley et al., 2006]). N. benthamiana plants (lab stocks) were grown in a controlled environment (21°C, 16-h photoperiod) for transient expression studies in leaf tissue. For hydroponic feeding studies, Arabidopsis seedlings were cultured in liquid ½ MS10 medium (1 ml/well) in sterile 24-well plates (Sarstedt), essentially as described in [Matsuzaki et al. (2010]). For hormone and peptide assays, one seedling was grown in each well at 21°C under a 16-h photoperiod. For peptide feeding experiments, purified freeze-dried peptide was dissolved in DMSO to create a 500-μM stock solution. The peptide stock solution was added to liquid ½ MS10 medium containing 0.1% DMSO to obtain a final peptide concentration of 50 or 100 nM (or 10, 25, 50, and 100 nM for dose-dependent assays). For copper treatments, 1 mM CuSO4 solution was filter sterilized and added to autoclaved liquid ½ MS10 medium to obtain final CuSO4 concentrations of 0, 5, 10, 15, 20, 25, 30, 35, 40, 45, and 50 μM. Seedlings were scanned to create a digital image, and root lengths of the seedlings were measured using ImageJ. Statistical analysis was performed using Real Statistics Resource Pack software (release 3.8, www.real-statistics.com) in Excel (Microsoft) using data from at least 10 independently grown seedlings for root growth analysis; specific numbers are defined for each experiment.

[2] = Anaerobic Cu(I) titration in competition with bicinchoninic acid (BCA); format: binding; settings: synthetic peptide; mutant 40 μM, BCA 93.3 μM, mean ± SD, n = 3 (supplemental Figure 10)
Procedure: Freeze-dried synthetic PLS peptide (Cambridge Research Biochemicals) was dissolved in DMSO. An aliquot was added to aqueous buffer (10 mM HEPES [pH 7], 20 mM NaCl, 80 mM KCl), and absorbance was recorded at 280 nm. PLS concentration was estimated from the absorbance and the ProtParam estimated extinction coefficient of 2980 M^−1 cm^−1. Concurrently, a sample was submitted for quantitative amino acid analysis (Abingdon Health Laboratory Services). From this analysis, a conversion factor of 2.27 was generated, which was applied to the concentrations determined by A280 nm.
A fusion of PLS to MBP was created using the NEBExpress MBP Fusion and Purification System. Two complementary oligonucleotide primers encoding PLS (optimized for expression in E. coli) were annealed and inserted into the pMal-c5x plasmid at the XmnI and SalI insertion sites. The three mutants MBP:PLS(C6S), MBP:PLS(C17S), and MBP:PLS(C6S/C17S) were created by site-directed mutagenesis (QuikChange II, Agilent). E. coli NEB Express containing the pMal plasmid with the correct MBP:PLS mutant was used to overexpress each protein. Harvested cells were resuspended in 20 mM Tris–HCl (pH 7.4), 200 mM NaCl, and 1 mM EDTA, then frozen at −20°C overnight. Cells were defrosted in cold H2O, sonicated, purified by ammonium sulfate precipitation (where MBP-PLS precipitates >60% saturation), separated on an MBP-Trap column (GE Healthcare), and eluted using buffer containing 10 mM maltose. MBP:PLS-containing fractions were pooled and concentrated using a centrifugal concentrator (Corning, Spin-X UF 30 kDa) and buffer exchanged by desalting column into a metal-free buffer of 20 mM HEPES (pH 7.0) and 50 mM NaCl in an anaerobic chamber (Belle Technology). Mutants containing thiols were quantified using Ellman’s assay, and MBP:PLS(C6S/C17S), which lacks all thiols, was quantified using the Bradford assay alone. Samples were also analyzed for metal content by ICP–MS to ensure >95% apo-protein.
All Cu(I) titration experiments were carried out in an anaerobic chamber (Belle Technology) using metal-free CHELEX-treated, degassed buffers. For titration experiments with Cu(I), aqueous CuSO4 stock was quantified in advance by ICP–MS and diluted to working concentrations. The reductant NH2OH was included at a final concentration of 1 mM to maintain Cu(I) in its reduced state. Proteins were diluted in buffer to the final concentration specified in each titration in air-tight quartz cuvettes (Helma), and after addition of probe to the concentration specified, titrated with CuSO4. After each addition, solutions were thoroughly mixed and absorbance spectra recorded using a Lambda 35 UV/Vis spectrophotometer (PerkinElmer). Titration isotherm data were fitted using simulated affinity curves with DynaFit ([Kuzmič, 2009]).

pPLS::GUS = pPLS::GUS expression in root tips after hormone treatment; format: in vivo, Arabidopsis; settings: 10 μM 2,4-D, root tips
Text: Figure S15. The link between auxi n and et hyl ene si gnal l i ng ef f ect s on PLS transcription, and downstream ef f ect s on et hyl ene responses.
(A) Ant agoni sm between auxi n and et hyl ene on PLS expressi on.
Auxin posit ively regulates PLS gene transcription, whi l e ACC (ethylene pr ecur sor ) […]
Lef t upper panel: pPLS::GUS […]
expr ession in the Arabidopsis root tip under standard gr owt h conditions. Lef t lower panel: pPLS::PLS:GFP expr ession in the Arabidopsis root tip under standard gr owt h conditions.
Ri ght panel: pPLS::GUS expr ession in root tips treated wi t h 10 μM 2,4-D, showing ect opic […]
10 μM 2,4-D plus 10 μm ACC, showing the ant agonism of the inductive eff ect of 2,4-D on PLS::GUS expr ession. Images ar e representative of 10 independently gr own roots. […]

pls mutant = settings: cited from earlier work
Text: Transgenic complementation of the mutant by the PLS gene (AT4G39403), which encodes a 36-amino-acid peptide, suppresses the mutant phenotype ([ ... || The pls mutant is rescued by the supply of silver ions ([Casson et al., 2002]), and silver is likely delivered to the ethylene receptor via RAN1 ([Binder et al., 2010]); these findings argue against a mechanism in which PLS acts downstream of RAN1 to metalate ETR1 in the ER lumen. It is also unlikely that PLS removes Cu(I) from the receptor, as this would inactivate the receptor and lead to enhanced ethylene signaling in the presence of PLS, which is the opposite of what would be expected from the pls mutant phenotype. We therefore favor a model (Figure 6) in which PLS binds ETR1 as part of th ...

[3] = target: T1, full-length ETR1, recombinant, purified and fluorescently labeled (Arabidopsis, UniProt P49333 1-738, fluorescent label (dye and site not stated)); assay: MST
T1 chain: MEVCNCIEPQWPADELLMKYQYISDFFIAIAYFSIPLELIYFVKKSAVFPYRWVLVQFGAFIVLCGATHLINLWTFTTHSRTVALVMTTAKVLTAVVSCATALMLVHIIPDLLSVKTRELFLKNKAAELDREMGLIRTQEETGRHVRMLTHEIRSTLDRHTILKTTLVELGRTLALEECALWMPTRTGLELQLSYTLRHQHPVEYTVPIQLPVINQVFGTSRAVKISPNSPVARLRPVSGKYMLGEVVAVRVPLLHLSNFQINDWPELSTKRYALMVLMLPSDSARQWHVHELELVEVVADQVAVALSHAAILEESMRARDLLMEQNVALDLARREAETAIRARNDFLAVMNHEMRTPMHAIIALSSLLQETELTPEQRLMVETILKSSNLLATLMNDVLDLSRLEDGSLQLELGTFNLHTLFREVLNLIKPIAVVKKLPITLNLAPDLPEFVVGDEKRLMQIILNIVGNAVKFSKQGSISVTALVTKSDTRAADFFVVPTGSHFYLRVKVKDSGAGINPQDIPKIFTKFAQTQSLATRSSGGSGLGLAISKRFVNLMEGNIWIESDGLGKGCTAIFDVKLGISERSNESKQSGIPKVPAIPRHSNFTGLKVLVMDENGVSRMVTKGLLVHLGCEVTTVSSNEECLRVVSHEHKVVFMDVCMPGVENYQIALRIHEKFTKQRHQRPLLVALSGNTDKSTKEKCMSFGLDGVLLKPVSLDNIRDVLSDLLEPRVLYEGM

C1: C-terminal 14 amino acids of Arabidopsis PLS (YLLVAKLFKLFKIH; UniProt Q8LLV8 23-36, looked up, fragment)
rescue of root growth of pls seedlings ([1]; hydroponic, 10 days): unable to rescue the mutant

PLS(FL C6S, C17S): mutated Arabidopsis full-length peptide in which both cysteines were replaced with serines (MKPRLSFNFRRRSISPSYISISYLLVAKLFKLFKIH; full-length; UniProt Q8LLV8 1-36, looked up, variant C6S C17S)
rescue of pls mutant by double-Cys mutant peptide ([1]; 100 nM, hydroponic, 10 days (Figure 5A)): non-functional; also recorded: failing to rescue the short primary root phenotype of the pls mutant | withholding of Cu(I) from BCA [2]: does not

O=C(O)COc1ccc(Cl)cc1Cl [2,4-D]
pPLS::GUS expression (pPLS::GUS): throughout the root

silver ions
rescue of pls mutant phenotype (pls mutant; pharmacological inhibition of ethylene signaling, ref Chilley et al., 2006): rescued | rescue of pls mutant (pls mutant; supply of silver ions, ref Casson et al., 2002): rescued

C2: C-terminal 24 amino acids of Arabidopsis PLS (SISPCYISISYLLVAKLFKLFKIH; UniProt Q8LLV8 13-36, looked up, fragment)
rescue of root growth of pls seedlings ([1]; hydroponic, 10 days): unable to rescue the mutant

N1: N-terminal 22 amino acids of Arabidopsis PLS (MKPRLCFNFRRRSISPCYISIS; UniProt Q8LLV8 1-22, looked up, fragment)
rescue of root growth of pls seedlings ([1]; hydroponic, 10 days): rescued root growth | difference in rescue effects of PLS(FL) and PLS(N1), t-test P ([1]; 50 nM, n = 25): > 0.1 | difference in rescue effects of PLS(FL) and PLS(N1) ([1]; 50 nM, n = 25, t-test): did not differ significantly | rescue of short primary root length of pls mutant ([1]; hydroponic, 10 days, 100 nM (Figure 2B) or 50 nM (Figure 2C)): able to rescue the short primary root length

N2: N-terminal 9 amino acids of Arabidopsis PLS (MKPRLCFNF; UniProt Q8LLV8 1-9, looked up, fragment)
rescue of root growth of pls seedlings ([1]; hydroponic, 10 days): unable to rescue the mutant

MKPRLCFNFRRRSISPCYISISYLLVAKLFKLFKIH [synthetic full-length POLARIS (PLS) peptide, PLS(FL)]
Kd [3]: 1900 nM
